From the supplement of paper PMC10307832

What was measured:
Experiment in all cases: relative viability (nuclei count vs DMSO), 5 days (fraction); higher = more cells survive
[1] = compound: O=C(/C=C/c1ccccc1)NC(NC(=S)Nc1cccc2cccnc12)C(Cl)(Cl)Cl [Salubrinal] + Nc1ncn([C@H]2C[C@H](O)[C@@H](CO)O2)c(=O)n1 [Decitabine] (partner 2 µM)
Procedure, shortened: (§1)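 Relative viability divides the nuclei count in treated wells by that in vehicle wells. Lung cancer cell lines were seeded in 1536-well plates, dosed by pin tool the next day, and fixed and stained after 5 days in one step with final 0.05% Triton X-100, 1% formaldehyde and 1 ug/ml Hoechst. Dosing was a single drug or a fixed anchor-drug dose plus five library-drug doses (not always all listed) in √10 steps, and values are medians of duplicate plates imaged at 4×.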

[2] = compound: O=C(/C=C/c1ccccc1)NC(NC(=S)Nc1cccc2cccnc12)C(Cl)(Cl)Cl [Salubrinal] + CC1(C)CCC(c2ccc(Cl)cc2)=C(CN2CCN(c3ccc(C(=O)NS(=O)(=O)c4ccc(N[C@H](CCN5CCOCC5)CSc5ccccc5)c(S(=O)(=O)C(F)(F)F)c4)cc3)CC2)C1 [Navitoclax] (partner 0.5 µM)
Procedure, shortened: as §1

[3] = compound: Cc1ccc2nc(NCCN)c3ncc(C)n3c2c1 + COc1cc2c(Oc3ccc(NC(=O)C4(C(=O)Nc5ccc(F)cc5)CC4)cc3F)ccnc2cc1OCCCN1CCOCC1 [Foretinib] (partner 0.25 µM)
Procedure, shortened: as §1

[4] = compound: Cc1ccc2nc(NCCN)c3ncc(C)n3c2c1 + Nc1ncn([C@H]2C[C@H](O)[C@@H](CO)O2)c(=O)n1 [Decitabine] (partner 2 µM)
Procedure, shortened: as §1

Cell Line	relative viability ([1]; first compound 0.08 µM)	relative viability ([1]; first compound 0.253 µM)	relative viability ([1]; first compound 0.8 µM)	relative viability ([1]; first compound 2.53 µM)	relative viability ([1]; first compound 8 µM)	relative viability ([2]; first compound 0.08 µM)	relative viability ([2]; first compound 0.253 µM)	relative viability ([2]; first compound 0.8 µM)	relative viability ([2]; first compound 2.53 µM)	relative viability ([2]; first compound 8 µM)	relative viability ([3]; first compound 0.04 µM)	relative viability ([3]; first compound 0.1265 µM)	relative viability ([3]; first compound 0.4 µM)	relative viability ([3]; first compound 1.265 µM)	relative viability ([3]; first compound 4 µM)	relative viability ([4]; first compound 0.04 µM)	relative viability ([4]; first compound 0.1265 µM)	relative viability ([4]; first compound 0.4 µM)	relative viability ([4]; first compound 1.265 µM)	relative viability ([4]; first compound 4 µM)
NCI-H596	1.1	1.02	1.18	0.969	0.863	1.01	1.09	0.959	0.869	1.01	0.811	0.81	0.912	0.889	0.7	1.02	0.967	0.979	0.887	0.897
A-427	0.575	0.564	0.57	0.539	0.597	0.942	1.01	1.08	0.886	0.926	1.09	1.03	0.962	1	0.948	0.557	0.561	0.547	0.58	0.539
EMC-BAC-2	0.992	0.879	1.01	0.991	1.05	1.53	1.01	1.2	1.16	1.15	0.966	0.992	0.988	1.01	1.05	0.973	1.01	0.989	1.06	0.966
NCI-H441	0.235	0.243	0.265	0.269	0.222	0.437	0.711	0.642	0.678	0.913	1.1	1.28	0.982	0.926	0.918	0.235	0.245	0.191	0.26	0.235
LCLC-103H	0.772	0.696	0.718	0.782	0.608						0.753	0.919	0.802	0.761	0.633	0.71	0.81	0.731	0.717	0.735
HCC-827	0.303	0.335	0.361	0.345	0.341	1.03	0.958	1.1	1.05	0.979	1.05	1.1	1.06	1.02	0.935	0.335	0.325	0.333	0.391	0.284
NCI-H1355	0.352	0.394	0.359	0.36	0.35	1.02	1.07	1.07	0.949	0.87	1.03	0.943	0.901	0.977	0.978	0.398	0.364	0.345	0.356	0.367
NCI-H1734	0.573	0.51	0.527	0.474	0.477	0.938	0.755	0.964	0.858	0.745	0.911	0.903	0.78	0.95	0.801	0.464	0.5	0.458	0.501	0.511
HARA	0.402	0.498	0.601	0.517	0.605	1.05	1.18	1.13	1.16	1.11	0.783	0.829	0.903	0.956	0.861	0.492	0.758	0.651	0.419	0.546
HCC-15	0.723	0.555	0.773	0.762	0.61	0.785	0.602	0.722	0.771	0.689	1.08	1.07	1.06	0.885	0.723	0.624	0.693	0.474	0.598	0.522
LCLC-97TM1	0.248	0.223	0.234	0.21	0.257	0.368	0.648	0.464		0.433	0.91	0.998	0.934	0.931	0.892	0.215	0.21	0.244	0.22	0.236
RERF-LC-KJ	0.834	0.605	0.792	0.697	0.598	0.858	1.24	0.816	0.945	0.83	0.911	0.845	0.851	0.796	0.828	0.63	0.709	0.684	0.765	0.616
NCI-H1651	0.654	0.542	0.681	0.634	0.661	1.1	1.01	1.21		0.979	0.682	0.744	0.825	0.727	0.759	0.628	0.664	0.69	0.637	0.518
NCI-H1793	0.625	0.494	0.521	0.467	0.608	0.476	0.432	0.431	0.351	0.339	0.79	0.68	0.672	0.615	0.748	0.32	0.5	0.439	0.383	0.453
NCI-H2023	0.238	0.219	0.236	0.246	0.221	1.05	0.733	0.96	1.01	0.932	0.932	0.522	1.01	0.803	0.708	0.225	0.227	0.241	0.256	0.2
LC-2-ad	0.751	0.63	0.792	0.771	0.813	0.5	0.35	0.666	0.54	0.413	0.96	0.879	0.876	0.984	0.868	0.728	0.728	0.705	0.712	0.768
NCI-H1703						1.39	1.12	0.971	0.901	0.964	0.307	0.316	0.322	0.368	0.327					
NCI-H1437	0.549	0.502	0.523	0.564	0.612	1.14	1.06	1.16	1.08	1.09	1.32	1.23	1.33	1.28	1.2	0.581	0.526	0.596	0.495	0.498
SK-LU-1	0.609	0.597	0.739	0.685	0.506	0.917	0.745	1.02	0.859	0.864	0.824	0.836	0.9	0.791	0.781	0.672	0.656	0.744	0.665	0.69
H3255	0.703	0.649	0.774	0.591	0.558	0.637	0.481	0.582	0.523	0.564	1.11	0.961	0.744	0.98	0.764	0.594	0.611	0.546	0.69	0.702

Cell Line	relative viability ([1]; first compound 0.08 µM)	relative viability ([1]; first compound 0.253 µM)	relative viability ([1]; first compound 0.8 µM)	relative viability ([1]; first compound 2.53 µM)	relative viability ([1]; first compound 8 µM)	relative viability ([2]; first compound 0.08 µM)	relative viability ([2]; first compound 0.253 µM)	relative viability ([2]; first compound 0.8 µM)	relative viability ([2]; first compound 2.53 µM)	relative viability ([2]; first compound 8 µM)	relative viability ([3]; first compound 0.04 µM)	relative viability ([3]; first compound 0.1265 µM)	relative viability ([3]; first compound 0.4 µM)	relative viability ([3]; first compound 1.265 µM)	relative viability ([3]; first compound 4 µM)	relative viability ([4]; first compound 0.04 µM)	relative viability ([4]; first compound 0.1265 µM)	relative viability ([4]; first compound 0.4 µM)	relative viability ([4]; first compound 1.265 µM)	relative viability ([4]; first compound 4 µM)
Calu-6						0.903	0.749	0.888	0.877	0.809	0.855	0.841	0.815	0.833	0.811					
NCI-H1792	0.608		0.741	0.49	0.405	0.745		1.26	0.669	0.458						0.614	0.553		0.511	0.461
NCI-H2170	0.483	0.452	0.496	0.472	0.461	0.662	0.581	0.631	0.598	0.503	1.05	0.981	0.975	1.03	1.02	0.473	0.442	0.433	0.448	0.461
NCI-H1650	0.522	0.453	0.417	0.476	0.455	1.17	1.06	1.13	1.19	1.16	1.22	1.15	1.22	1.13	0.943	0.365	0.392	0.374	0.393	0.38
EBC-1						0.349	0.332	0.435	0.399	0.287	0.0984	0.102	0.098	0.0921	0.0989					
NCI-H2342	0.797	0.82	0.657	0.769	0.595						1.24	1.06	0.987	1.05	1.14	0.688	0.73	0.799	0.737	0.72
NCI-H358	0.24	0.219	0.234	0.188	0.202						0.752	0.718	0.635	0.721	0.654	0.225	0.216	0.239	0.257	0.206
NCI-H2228						1.43	0.661	0.888	1.07	0.767	0.896	0.764	0.829	0.798	0.749					
NCI-H1563											0.954	0.882	0.872	1.06	0.991					
NCI-H1623											0.945	0.94	0.897	0.761	0.79					
NCI-H1299						1.06	1.07	1.07	0.986	1.11	1.12	1.14	1.09	1.05	1					
NCI-H650	0.288	0.297	0.352	0.298	0.323						1.09	0.937	1.12	0.948	1	0.332	0.326	0.31	0.269	0.331
NCI-H661	0.602	0.474	0.57	0.474	0.536						1.02	0.983	1.03	1.1	0.967	0.559	0.562	0.56	0.513	0.552
NCI-H522	0.711	1.19	0.617	0.705	0.729											0.573	0.795	0.765	0.62	0.675
CAL-12T						1.29	0.952	1.21	1.09	1.06	1.14	0.967	1.13	1.14	0.97					
NCI-H1648	0.615	0.483	0.632	0.493	0.366											0.521	0.5	0.568	0.528	0.431
SW 900	0.483	0.466	0.512	0.419	0.519						1.11	1.08		0.684	0.772		0.43	0.448	0.354	0.458
IA-LM						0.847	0.79	0.782	0.595	0.533	1.19	1.25	1.07	1.16	0.928					
ABC-1	1.42	0.915	1.14	1.01	1.13						1.22	1.05	1.09	0.839	1.01	1.14	1.32	1.12	0.87	1.3
HCC-44	0.955	0.969	0.935	0.934	0.919	1.06	0.899	0.999	0.97	0.802						0.981	0.946	0.923	0.94	1
